PMC7116141 (Journal of the American Chemical Society, 2006)

Molecular target: T1, human OGA (hOGA, O-GlcNAcase) (Homo sapiens, UniProt O60502)
T1 sequence (O60502 1-916): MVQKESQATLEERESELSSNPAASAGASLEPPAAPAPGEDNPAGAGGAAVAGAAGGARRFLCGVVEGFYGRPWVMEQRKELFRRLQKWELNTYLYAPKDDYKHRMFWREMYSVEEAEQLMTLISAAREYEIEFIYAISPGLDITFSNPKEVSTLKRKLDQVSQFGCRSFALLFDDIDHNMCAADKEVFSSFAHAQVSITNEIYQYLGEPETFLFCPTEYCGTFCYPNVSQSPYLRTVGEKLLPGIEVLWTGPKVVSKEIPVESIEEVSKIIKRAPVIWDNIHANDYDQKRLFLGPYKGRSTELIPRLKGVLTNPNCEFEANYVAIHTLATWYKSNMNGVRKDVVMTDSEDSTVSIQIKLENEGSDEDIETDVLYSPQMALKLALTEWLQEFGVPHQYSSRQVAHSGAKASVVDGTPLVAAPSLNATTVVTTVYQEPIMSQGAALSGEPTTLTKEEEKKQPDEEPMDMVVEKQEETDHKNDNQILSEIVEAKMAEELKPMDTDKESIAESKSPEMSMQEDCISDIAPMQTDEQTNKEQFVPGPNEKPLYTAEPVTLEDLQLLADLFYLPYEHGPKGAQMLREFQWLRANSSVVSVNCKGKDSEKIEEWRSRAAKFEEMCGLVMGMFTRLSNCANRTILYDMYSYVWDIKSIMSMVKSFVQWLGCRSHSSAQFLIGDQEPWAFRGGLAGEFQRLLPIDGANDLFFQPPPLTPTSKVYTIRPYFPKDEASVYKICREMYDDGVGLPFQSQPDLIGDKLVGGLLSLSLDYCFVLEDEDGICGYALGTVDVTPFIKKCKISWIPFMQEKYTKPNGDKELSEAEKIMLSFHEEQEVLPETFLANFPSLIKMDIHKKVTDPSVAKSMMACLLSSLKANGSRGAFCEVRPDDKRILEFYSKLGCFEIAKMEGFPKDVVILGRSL
Test: anti-O-GlcNAc immunoblot of treated HEK […] cells
Assay type: cell-based

CC(C)C(=O)N[C@H]1c2nc(CCc3ccccc3)cn2[C@H](CO)[C@@H](O)[C@@H]1O [compound 1, GlcNAcstatin]
anti-O-GlcNAc immunoblot of treated HEK 293 cells (qualitative): is active against human OGA (hOGA) in human cell lines
